The target of test [1] is T1, human V2 receptor (Homo sapiens, UniProt P30518).
T1 construct: expressed in transfected cells; host or cells: CHO K1 (ATCC) expressing firefly luciferase under a CRE-responsive promoter
Kind of test: Cellular in vitro assay for determining vasopressin receptor activity, V2 receptor cell line (CHO, CRE-luciferase). The note with it: CHO cell line transfected with human V2 receptor; [Arg8]-vasopressin at EC50 concentration, 3 hours; read-out: IC50 hV2. The test is classed as cell-based.

Test [2] has as its target T2, human V1a receptor (Homo sapiens, UniProt P37288).
T2 construct: expressed in transfected cells; host or cells: CHO K1 (ATCC), also stably transfected with a modified aequorin
Kind of test: Cellular in vitro assay for determining vasopressin receptor activity, V1a receptor cell line (CHO, aequorin luminescence). The test is classed as cell-based. The note with it: for IC50: CHO cell line transfected with human V1a receptor, [Arg]-vasopressin at EC50 concentration, read-out: IC50 hV1a; for ratio IC50 hV2/hV1a: selectivity ratio IC50 hV2 / IC50 hV1a. In a few lines:
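Cells were plated the day before in medium containing 5 μg/ml coelenterazine and kept at 37° C. Compounds at various concentrations were then added for 10 minutes. Next, [Arg]-vasopressin at EC50 was applied and light output recorded at once, yielding IC50.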

The structures appear in SMILES notation.

T1 sequence (P30518 whole entry): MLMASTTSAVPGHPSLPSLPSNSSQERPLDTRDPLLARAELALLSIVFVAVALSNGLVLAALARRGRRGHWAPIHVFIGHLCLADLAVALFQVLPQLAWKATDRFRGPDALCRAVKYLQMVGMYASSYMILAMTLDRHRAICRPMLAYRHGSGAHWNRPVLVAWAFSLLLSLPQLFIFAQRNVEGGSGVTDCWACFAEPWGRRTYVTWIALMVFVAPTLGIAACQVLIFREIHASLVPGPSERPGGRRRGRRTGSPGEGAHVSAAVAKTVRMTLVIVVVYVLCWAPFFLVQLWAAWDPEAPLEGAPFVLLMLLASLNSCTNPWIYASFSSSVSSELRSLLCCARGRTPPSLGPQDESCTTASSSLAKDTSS
T2 sequence (P37288 whole entry): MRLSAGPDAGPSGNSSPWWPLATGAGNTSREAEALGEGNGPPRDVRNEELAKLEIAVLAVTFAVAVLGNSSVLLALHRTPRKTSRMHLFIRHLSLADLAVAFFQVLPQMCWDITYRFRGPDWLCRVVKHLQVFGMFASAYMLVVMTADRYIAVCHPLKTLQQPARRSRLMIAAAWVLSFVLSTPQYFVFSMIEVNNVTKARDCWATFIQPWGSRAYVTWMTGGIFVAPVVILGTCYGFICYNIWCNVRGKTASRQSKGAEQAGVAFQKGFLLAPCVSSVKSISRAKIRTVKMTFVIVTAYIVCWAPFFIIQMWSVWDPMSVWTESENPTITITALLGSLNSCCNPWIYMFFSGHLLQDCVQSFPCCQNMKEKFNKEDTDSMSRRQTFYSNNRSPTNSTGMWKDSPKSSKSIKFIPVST

Take `O=C(NCc1cc(F)cc(F)c1)c1ccccc1-n1cnc(Cn2nc(-c3ccc(Cl)cc3)n(C[C@H](O)C(F)(F)F)c2=O)n1` [Example 243, 2-[3-({3-(4-Chlorophenyl)-5-oxo-4-[(2S)-3,3,3-trifluoro-2-hydroxypropyl]-4,5-dihydro-1H-1,2,4-triazol-1-yl}methyl)-1H-1,2,4-triazol-1-yl]-N-(3,5-difluorobenzyl)benzamide]: the half-inhibitory concentration (IC50) in test [1] was 540 nM. Further, in test [2], the IC50 worked out at 22.5 nM and the “ratio IC50 hV2/hV1a” value was 24.0.

For `Cc1noc(NC(=O)c2ccccc2-n2cnc(Cn3nc(-c4ccc(Cl)cc4)n(C[C@H](O)C(F)(F)F)c3=O)n2)c1C` [Example 244, 2-[3-({3-(4-Chlorophenyl)-5-oxo-4-[(2S)-3,3,3-trifluoro-2-hydroxypropyl]-4,5-dihydro-1H-1,2,4-triazol-1-yl}methyl)-1H-1,2,4-triazol-1-yl]-N-(3,4-dimethyl-1,2-oxazol-5-yl)benzamide], in test [1], the IC50 came to 230 nM. In test [2], the IC50 worked out at 7.3 nM and the “ratio IC50 hV2/hV1a” value is reported as 31.5.

For the compound `CC(C)=CCNC(=O)c1ccccc1-n1cnc(Cn2nc(-c3ccc(Cl)cc3)n(C[C@H](O)C(F)(F)F)c2=O)n1` [Example 245, 2-[3-({3-(4-Chlorophenyl)-5-oxo-4-[(2S)-3,3,3-trifluoro-2-hydroxypropyl]-4,5-dihydro-1H-1,2,4-triazol-1-yl}methyl)-1H-1,2,4-triazol-1-yl]-N-(3-methylbut-2-en-1-yl)benzamide], the IC50 in test [1] came out at 810 nM. Also, in test [2], the IC50 was found to be 6.45 nM and the “ratio IC50 hV2/hV1a” value was 125.6.

On to `O=C(N[C@H]1CC[C@H](O)CC1)c1ccccc1-n1cnc(Cn2nc(-c3ccc(Cl)cc3)n(C[C@H](O)C(F)(F)F)c2=O)n1` [Example 246, 2-[3-({3-(4-Chlorophenyl)-5-oxo-4-[(2S)-3,3,3-trifluoro-2-hydroxypropyl]-4,5-dihydro-1H-1,2,4-triazol-1-yl}methyl)-1H-1,2,4-triazol-1-yl]-N-(trans-4-hydroxycyclohexyl)benzamide], for which the IC50 in test [1] came out at 1200 nM. In addition, in test [2], the IC50 was found to be 4.55 nM and the “ratio IC50 hV2/hV1a” value turned out to be 263.7.

Regarding `O=C(Nc1ccccc1O)c1ccccc1-n1cnc(Cn2nc(-c3ccc(Cl)cc3)n(C[C@H](O)C(F)(F)F)c2=O)n1` [Example 247, 2-[3-({3-(4-Chlorophenyl)-5-oxo-4-[(2S)-3,3,3-trifluoro-2-hydroxypropyl]-4,5-dihydro-1H-1,2,4-triazol-1-yl}methyl)-1H-1,2,4-triazol-1-yl]-N-(2-hydroxyphenyl)benzamide], in test [1], the IC50 amounted to 10.4 nM. For the same compound, in test [2], the IC50 was found to be 2.4 nM and the “ratio IC50 hV2/hV1a” value was 4.4.

Turning to `O=C(Nc1cccnc1)c1ccccc1-n1cnc(Cn2nc(-c3ccc(Cl)cc3)n(C[C@H](O)C(F)(F)F)c2=O)n1` [Example 248, 2-[3-({3-(4-Chlorophenyl)-5-oxo-4-[(2S)-3,3,3-trifluoro-2-hydroxypropyl]-4,5-dihydro-1H-1,2,4-triazol-1-yl}methyl)-1H-1,2,4-triazol-1-yl]-N-(pyridin-3-yl)benzamide], the IC50 in test [1] came out at 65 nM. In test [2], the IC50 is 1.2 nM and the “ratio IC50 hV2/hV1a” value is recorded as 54.2.

On to `Cc1ccc(NC(=O)c2ccccc2-n2cnc(Cn3nc(-c4ccc(Cl)cc4)n(C[C@H](O)C(F)(F)F)c3=O)n2)cn1` [Example 249, 2-[3-({3-(4-Chlorophenyl)-5-oxo-4-[(2S)-3,3,3-trifluoro-2-hydroxypropyl]-4,5-dihydro-1H-1,2,4-triazol-1-yl}methyl)-1H-1,2,4-triazol-1-yl]-N-(6-methylpyridin-3-yl)benzamide], for which the concentration for half-maximal inhibition (IC50) in test [1] came to 136 nM. Also, in test [2], the half-inhibitory concentration (IC50) amounted to 2.8 nM and the “ratio IC50 hV2/hV1a” value amounted to 48.6.

As for `Cc1cc(NC(=O)c2ccccc2-n2cnc(Cn3nc(-c4ccc(Cl)cc4)n(C[C@H](O)C(F)(F)F)c3=O)n2)cnc1F` [Example 250, 2-[3-({3-(4-Chlorophenyl)-5-oxo-4-[(2S)-3,3,3-trifluoro-2-hydroxypropyl]-4,5-dihydro-1H-1,2,4-triazol-1-yl}methyl)-1H-1,2,4-triazol-1-yl]-N-(6-fluoro-5-methylpyridin-3-yl)benzamide], the IC50 in test [1] was 87 nM; in test [2], 4.45 nM. Besides, in test [2], the “ratio IC50 hV2/hV1a” value turned out to be 19.6.

Consider `O=C(Nc1nncs1)c1ccccc1-n1cnc(Cn2nc(-c3ccc(Cl)cc3)n(C[C@H](O)C(F)(F)F)c2=O)n1` [Example 251, 2-[3-({3-(4-Chlorophenyl)-5-oxo-4-[(2S)-3,3,3-trifluoro-2-hydroxypropyl]-4,5-dihydro-1H-1,2,4-triazol-1-yl}methyl)-1H-1,2,4-triazol-1-yl]-N-(1,3,4-thiadiazol-2-yl)benzamide], for which the IC50 in test [1] amounted to 81.5 nM. Also, in test [2], the IC50 is 8.85 nM and the “ratio IC50 hV2/hV1a” value worked out at 9.2.

For `N#CCNC(=O)c1ccccc1-n1cnc(Cn2nc(-c3ccc(Cl)cc3)n(C[C@H](O)C(F)(F)F)c2=O)n1` [Example 252, 2-[3-({3-(4-Chlorophenyl)-5-oxo-4-[(2S)-3,3,3-trifluoro-2-hydroxypropyl]-4,5-dihydro-1H-1,2,4-triazol-1-yl}methyl)-1H-1,2,4-triazol-1-yl]-N-(cyanomethyl)benzamide], the IC50 in test [1] is 255 nM. Also, in test [2], the IC50 is 7.6 nM and the “ratio IC50 hV2/hV1a” value stood at 33.6.

Take `O=C(NCc1cccs1)c1ccccc1-n1cnc(Cn2nc(-c3ccc(Cl)cc3)n(C[C@H](O)C(F)(F)F)c2=O)n1` [Example 253, 2-[3-({3-(4-Chlorophenyl)-5-oxo-4-[(2S)-3,3,3-trifluoro-2-hydroxypropyl]-4,5-dihydro-1H-1,2,4-triazol-1-yl}methyl)-1H-1,2,4-triazol-1-yl]-N-(thiophen-2-ylmethyl)benzamide]: in test [1], the 50% inhibitory concentration (IC50) is 365 nM. Also, in test [2], the IC50 worked out at 5.7 nM and the “ratio IC50 hV2/hV1a” value stood at 64.0.

For the compound `Cc1cc(NC(=O)c2ccccc2-n2cnc(Cn3nc(-c4ccc(Cl)cc4)n(C[C@H](O)C(F)(F)F)c3=O)n2)ccn1` [Example 254, 2-[3-({3-(4-Chlorophenyl)-5-oxo-4-[(2S)-3,3,3-trifluoro-2-hydroxypropyl]-4,5-dihydro-1H-1,2,4-triazol-1-yl}methyl)-1H-1,2,4-triazol-1-yl]-N-(2-methylpyridin-4-yl)benzamide], the IC50 in test [1] was determined as 670 nM. In test [2], the IC50 was 2.25 nM and the “ratio IC50 hV2/hV1a” value is 297.8.

As to `O=C(Nc1cncc(F)c1)c1ccccc1-n1cnc(Cn2nc(-c3ccc(Cl)cc3)n(C[C@H](O)C(F)(F)F)c2=O)n1` [Example 255, 2-[3-({3-(4-Chlorophenyl)-5-oxo-4-[(2S)-3,3,3-trifluoro-2-hydroxypropyl]-4,5-dihydro-1H-1,2,4-triazol-1-yl}methyl)-1H-1,2,4-triazol-1-yl]-N-(5-fluoropyridin-3-yl)benzamide], the half-maximal inhibitory concentration (IC50) in test [1] turned out to be 225 nM. Besides, in test [2], the IC50 was determined as 1.33 nM and the “ratio IC50 hV2/hV1a” value came out at 169.8.

On to `Cc1cnc(NC(=O)c2ccccc2-n2cnc(Cn3nc(-c4ccc(Cl)cc4)n(C[C@H](O)C(F)(F)F)c3=O)n2)s1` [Example 256, 2-[3-({3-(4-Chlorophenyl)-5-oxo-4-[(2S)-3,3,3-trifluoro-2-hydroxypropyl]-4,5-dihydro-1H-1,2,4-triazol-1-yl}methyl)-1H-1,2,4-triazol-1-yl]-N-(5-methyl-1,3-thiazol-2-yl)benzamide], for which, in test [1], the IC50 was 13 nM. In test [2], the IC50 is 3.6 nM and the “ratio IC50 hV2/hV1a” value is 3.6.

With `O=C(Nc1ccncn1)c1ccccc1-n1cnc(Cn2nc(-c3ccc(Cl)cc3)n(C[C@H](O)C(F)(F)F)c2=O)n1` [Example 257, 2-[3-({3-(4-Chlorophenyl)-5-oxo-4-[(2S)-3,3,3-trifluoro-2-hydroxypropyl]-4,5-dihydro-1H-1,2,4-triazol-1-yl}methyl)-1H-1,2,4-triazol-1-yl]-N-(pyrimidin-4-yl)benzamide], the IC50 in test [1] stood at 150 nM. For the same compound, in test [2], the IC50 worked out at 6.05 nM and the “ratio IC50 hV2/hV1a” value is on record as 24.8.

As for `O=C(Nc1ccccc1Cl)c1ccccc1-n1cnc(Cn2nc(-c3ccc(Cl)cc3)n(C[C@H](O)C(F)(F)F)c2=O)n1` [Example 258, N-(2-Chlorophenyl)-2-[3-({3-(4-chlorophenyl)-5-oxo-4-[(2S)-3,3,3-trifluoro-2-hydroxypropyl]-4,5-dihydro-1H-1,2,4-triazol-1-yl}methyl)-1H-1,2,4-triazol-1-yl]benzamide], the IC50 in test [1] is 81.5 nM. Further, in test [2], the IC50 worked out at 1.9 nM and the “ratio IC50 hV2/hV1a” value is 42.9.

For the compound `Cc1csc(NC(=O)c2ccccc2-n2cnc(Cn3nc(-c4ccc(Cl)cc4)n(C[C@H](O)C(F)(F)F)c3=O)n2)n1` [Example 259, 2-[3-({3-(4-Chlorophenyl)-5-oxo-4-[(2S)-3,3,3-trifluoro-2-hydroxypropyl]-4,5-dihydro-1H-1,2,4-triazol-1-yl}methyl)-1H-1,2,4-triazol-1-yl]-N-(4-methyl-1,3-thiazol-2-yl)benzamide], the figures for the IC50 in test [1] and in test [2] were 55 nM and 2.5 nM, respectively. In test [2], the “ratio IC50 hV2/hV1a” value is on record as 22.0.

For `CC1=C(C)CN(C(=O)c2ccccc2-n2cnc(Cn3nc(-c4ccc(Cl)cc4)n(C[C@H](O)C(F)(F)F)c3=O)n2)CC1` [Example 260, 5-(4-Chlorophenyl)-2-[(1-{2-[(4,5-dimethyl-3,6-dihydropyridin-1(2H)-yl)carbonyl]phenyl}-1H-1,2,4-triazol-3-yl)methyl]-4-[(2S)-3,3,3-trifluoro-2-hydroxypropyl]-2,4-dihydro-3H-1,2,4-triazol-3-one], the IC50 in test [1] is 760 nM. Moreover, in test [2], the IC50 worked out at 25.5 nM and the “ratio IC50 hV2/hV1a” value worked out at 29.8.

In general, IC50 refers to the concentration at which inhibition is half-maximal.

The values above are taken from US11173151B2, “Substituted triazole derivatives and uses thereof” (BAYER AKTIENGESELLSCHAFT, priority 2017, dated 2021).
